Experimental data from patent publication US9302991B2, “Arylamide derivatives as TTX-S blockers” (RaQualia Pharma Inc., priority 2010, dated 2016).
Where “and” joins values, the source holds several entries; their conditions need not be identical. Identical values can stand only once.

Experiments:
[1] = test system: Paw incision-induced static allodynia in rats; experiment: Paw incision-induced static allodynia in rats; assay type: in vivo, Sprague-Dawley rats; conditions: 30 mg/kg per os
Description: Paw Incision-Induced Static Allodynia in Rats
Male Sprague-Dawley rats at 7 weeks old are purchased from Charles River Japan Inc., and housed in groups of two per cage under a 12-h light/dark cycle (lights on at 07:00) with access to food and water ad libitum. Paw incision-induced static allodynia is assessed by VFH test. Surgery is performed according to the procedure described by Brennan et al. (Pain 1996, 64: 493-501). The animals are initially anesthetized with 3-4% isoflurane/O2 mixture in an anesthetic chamber and maintained with 2-3% delivered through a nose cone. The plantar surface of the right hind paw is sterilized with 7.5% povidone-iodine solution. A 1-cm longitudinal incision is made with a number 11 blade, through skin and fascia of the plantar aspect of the paw, starting 0.5 cm from the proximal edge of the heel and extending toward the toes. The plantaris muscle is elevated using forceps and retracted. The muscle origin and insertion remain intact. After hemostasis with gentle pressure, the skin is apposed with 2 sutures of 5-0 nylon. The wound site is covered with Terramycin ointment, and the rats are allowed to recover in their cages with soft bedding. The animals are individually placed in a Plexiglas test chamber on an elevated grid to acclimate for 1 hour before the day of surgery. […] The PWT is measured at the appropriated time after compound administration.

human Nav1.7 channels = target: T1, human Nav1.7 channels (Homo sapiens, UniProt Q15858); experiment: FRET assay, human Nav1.7 (EFS on FDSS); assay type: cell-based; conditions: CHO cells expressing human Nav1.7, read-out: IC50 against Nav1.7
T1 construct: expressed in transfected cells; host or cells: CHO
T1 sequence (Q15858 whole entry): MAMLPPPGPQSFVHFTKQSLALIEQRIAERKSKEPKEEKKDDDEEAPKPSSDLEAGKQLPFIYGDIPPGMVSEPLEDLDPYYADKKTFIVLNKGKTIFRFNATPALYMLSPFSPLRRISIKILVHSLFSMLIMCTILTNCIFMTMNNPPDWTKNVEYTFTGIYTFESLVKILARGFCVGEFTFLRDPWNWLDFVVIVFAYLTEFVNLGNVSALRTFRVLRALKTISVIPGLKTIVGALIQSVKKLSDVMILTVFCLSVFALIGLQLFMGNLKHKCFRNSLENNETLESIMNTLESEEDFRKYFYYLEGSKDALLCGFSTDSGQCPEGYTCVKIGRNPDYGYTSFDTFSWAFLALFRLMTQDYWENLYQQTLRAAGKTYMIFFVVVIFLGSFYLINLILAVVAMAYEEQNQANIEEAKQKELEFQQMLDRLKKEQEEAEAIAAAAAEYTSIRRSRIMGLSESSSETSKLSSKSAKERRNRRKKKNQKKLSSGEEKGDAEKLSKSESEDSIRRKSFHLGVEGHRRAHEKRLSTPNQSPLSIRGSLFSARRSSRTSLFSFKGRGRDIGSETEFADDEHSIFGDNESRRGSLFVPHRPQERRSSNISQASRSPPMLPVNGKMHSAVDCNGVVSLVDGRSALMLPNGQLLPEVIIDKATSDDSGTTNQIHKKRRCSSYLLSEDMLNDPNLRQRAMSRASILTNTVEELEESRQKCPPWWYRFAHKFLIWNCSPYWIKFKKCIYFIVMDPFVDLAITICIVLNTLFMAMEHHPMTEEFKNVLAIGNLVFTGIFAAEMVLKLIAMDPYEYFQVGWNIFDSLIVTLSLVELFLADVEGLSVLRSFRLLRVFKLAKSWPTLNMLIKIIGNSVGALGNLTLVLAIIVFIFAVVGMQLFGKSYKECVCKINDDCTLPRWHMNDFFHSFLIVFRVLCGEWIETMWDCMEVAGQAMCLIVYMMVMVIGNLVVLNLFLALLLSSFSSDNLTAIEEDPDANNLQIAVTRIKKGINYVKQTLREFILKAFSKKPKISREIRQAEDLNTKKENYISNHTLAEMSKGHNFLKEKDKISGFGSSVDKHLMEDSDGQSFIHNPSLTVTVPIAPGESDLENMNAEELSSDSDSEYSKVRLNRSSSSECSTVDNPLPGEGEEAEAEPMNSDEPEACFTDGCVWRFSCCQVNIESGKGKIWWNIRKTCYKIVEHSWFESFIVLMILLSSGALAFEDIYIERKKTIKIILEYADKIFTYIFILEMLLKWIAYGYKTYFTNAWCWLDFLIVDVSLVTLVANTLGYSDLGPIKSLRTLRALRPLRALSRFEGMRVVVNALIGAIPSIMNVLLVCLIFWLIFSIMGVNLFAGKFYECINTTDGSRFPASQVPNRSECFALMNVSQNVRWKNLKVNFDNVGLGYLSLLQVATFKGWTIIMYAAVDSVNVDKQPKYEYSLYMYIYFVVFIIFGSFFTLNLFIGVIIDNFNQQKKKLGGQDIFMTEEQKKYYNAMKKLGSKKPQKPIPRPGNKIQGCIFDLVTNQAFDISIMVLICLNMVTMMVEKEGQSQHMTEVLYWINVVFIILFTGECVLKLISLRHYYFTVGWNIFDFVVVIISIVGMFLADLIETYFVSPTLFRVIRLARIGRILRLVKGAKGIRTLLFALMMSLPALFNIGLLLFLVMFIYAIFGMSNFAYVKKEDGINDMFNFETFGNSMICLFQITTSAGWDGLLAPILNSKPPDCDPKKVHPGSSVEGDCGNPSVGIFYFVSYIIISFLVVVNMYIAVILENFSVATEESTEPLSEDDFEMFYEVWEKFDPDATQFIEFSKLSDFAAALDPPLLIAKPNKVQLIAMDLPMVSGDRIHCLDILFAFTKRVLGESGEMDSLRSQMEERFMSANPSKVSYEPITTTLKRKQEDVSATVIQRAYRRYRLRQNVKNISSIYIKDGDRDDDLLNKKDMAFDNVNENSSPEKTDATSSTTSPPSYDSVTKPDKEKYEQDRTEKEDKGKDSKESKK
Outline: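 CHO cells stably expressing the channel, loaded with CC2-DMPE (10 µM) then DiSBAC2(3) (15 µM) plus VABSC-1, in HEPES-buffered saline pH 7.4 at room temperature. Electrical field stimulation on FDSS; FRET ratio at 440 nm fitted for IC50.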

SMILES: CC(=O)Nc1cc(C(=O)NC(C)c2ccc(OCC(F)(F)F)nc2)ccn1 (single isomer, unassigned; (-)) [Example 1, (−)-2-acetamido-N-(1-(6-(2,2,2-trifluoroethoxy)pyridin-3-yl)ethyl)isonicotinamide]
- activity in paw incision-induced static allodynia (PWT) [1]: significant activity
- IC50 (human Nav1.7 channels): < 1000 nM and 940 nM
